Assays:
NPR1 [1] = molecular target: T1, NPR1 (Arabidopsis thaliana, UniProt P93002); test: Sephacryl S300 gel filtration of Strep-tagged NPR1; type: biochemical; details: 1 mM SA, catechol, 4-hydroxy benzoic acid or methyl-salicylate, 30 min; DTT concentration not given
T1 construct: made in house; host or cells: E. coli
Description: Strep-tagged purified proteins in a final volume of 2 ml were subjected to gel filtration analysis on the Sephacryl S100 HR or Sephacryl S300 HR packed in 50 cm long HR 16 columns (GE Health) and equilibrated with S300 chromatography buffer (50 mM HEPES, pH 7.4, 250 mM NaCl. Elutions, in 0.5 ml fractions, were performed in the same buffer at a flow rate of 0.8 ml/min. Where indicated, proteins were incubated with 1 mM SA, 1 mM catechol, 1 mM 4-hydroxy benzoic acid, or 1 mM methyl-salicylate at room temperature for 30 min prior to chromatography as described above with the exception that the chromatography buffer was supplemented with 1 mM SA, 1 mM catechol, 1 mM 4-hydroxy benzoic acid, or 1 mM methyl-salicylate, respectively. In the case of the EDTA treatment, NPR1 was stripped of its metal by a 50 mM EDTA treatment of 30 min, followed by an incubation of 30 min with 1 mM SA prior to gel filtration. In this case, the chromatography buffer was supplemented with 1 mM SA.

[2] = molecular target: T2, NPR1-dependent oligomer on the PR-1 promoter (Arabidopsis thaliana, UniProt P93002); test: Cross-linked-chromatin chromatography (3C Method); type: in vivo; details: wild-type plants, region −734 to −833
T2 construct: in wild-type plants (WT), such an oligomer forms on the PR-1 promoter; endogenous in cells; host or cells: wild-type Arabidopsis plants
T2 sequence (P93002 1-593): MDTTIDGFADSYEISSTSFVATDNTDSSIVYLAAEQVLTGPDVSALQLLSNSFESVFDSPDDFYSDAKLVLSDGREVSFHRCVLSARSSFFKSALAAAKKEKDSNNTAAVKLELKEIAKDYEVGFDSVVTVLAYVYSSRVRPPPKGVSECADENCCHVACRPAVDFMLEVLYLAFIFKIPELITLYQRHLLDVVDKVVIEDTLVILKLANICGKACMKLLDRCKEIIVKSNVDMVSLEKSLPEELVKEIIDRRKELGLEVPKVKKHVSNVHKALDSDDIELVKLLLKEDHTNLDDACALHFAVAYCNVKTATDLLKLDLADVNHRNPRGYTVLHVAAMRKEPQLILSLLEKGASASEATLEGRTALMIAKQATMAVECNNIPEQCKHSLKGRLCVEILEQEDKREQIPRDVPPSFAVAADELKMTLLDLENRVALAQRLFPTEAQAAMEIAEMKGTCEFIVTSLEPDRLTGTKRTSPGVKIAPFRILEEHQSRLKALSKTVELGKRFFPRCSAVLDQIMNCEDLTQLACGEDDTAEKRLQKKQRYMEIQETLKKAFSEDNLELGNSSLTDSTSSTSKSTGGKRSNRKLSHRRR
Description: Plant treatment, cross-linking, sonication, and cross-linking reversal were performed as for chromatin-immunoprecipitation (Rochon et al., 2006). Chromatography was as described under “Chromatography”. qPCR was performed with PR1 and Ubiquitin5 primers. PR-1 values were normalized against Ubiquitin5 (see Table 1 for primer sequence).
Although there are no decisive methods to test the stoichiometry of a protein in vivo, it was determined whether or not NPR1-dependent oligomers form on DNA in vivo by combining chromatin cross-linking, gel filtration, and qPCR (the 3C Method). The rationale was that, if an NPR1-dependent oligomer forms on the PR1 promoter in vivo, the presence of PR1 should be detectable by qPCR in the void fraction of an S300 after the chromatin had been cross-linked and sheared by sonication.

NPR1 [3] = molecular target: T1, NPR1; test: homologous and heterologous competitive binding curves for the [14C]SA-NPR1 interaction (equilibrium dialysis); details: 0.08 μM NPR1, 0.07 μM [14C]SA
Description: Given the dissociation reaction:
For the saturation binding curves (FIGS. 1C and 7D/E), 0.8 μM of NPR1 protein was incubated with a final concentration of 0.007-14 μM [^14C]SA. The data was analyzed by non-linear regression using GraphPad PRISM 4 and fitted to a one-site-binding rectangular hyperbola. For homologous and heterologous competitive binding curves (FIGS. 1E/F and 7F/G), 0.08 μM of NPR1 protein was incubated with a final concentration of 0.07 μM [^14C]SA.

solubility in water = type: physicochemical
PR-1 expression = PR-1 expression by quantitative RT-PCR after chemical treatment; type: in vivo, Arabidopsis; details: 12 hrs
Description: Total RNA was extracted from leaves using the Rneasy plant mini kit (Qiagen) according to the supplier's instructions. After treatment with Dnase I (Invitrogen), first strand cDNA synthesis was generated using SuperScript II reverse transcriptase (Invitrogen), and the (dT)17VN oligo in the presence of 0.4 U Rnasin (Fisher Scientific). The newly-synthesized cDNA was diluted 1/200 to reflect a concentration of 10 ng μL^−1 input total RNA. RT-PCR was performed on a CFX96 spectrofluorometric thermal cycler (BioRad). Firefly luciferase values were normalized against Renilla Luciferase and PR-1 values against Ubiquitin5 (see Table 1 for primer sequence). […] All treatments were for 12 hrs. Values consist of n=3 biological replicates and represent averages±1 SD.

[4] = 300 μM, fold-induction over water

Row | Compound | conformation of NPR1 (S300 elution profile) (NPR1 [1]) | NPR1-dependent oligomer on the PR-1 promoter (void fraction, qPCR) [2] | affinity for NPR1 compared with SA (competitive binding) (NPR1 [3]) | solubility in water (solubility in water) | further results
1 | O=C(O)c1ccc(O)cc1 [4-hydroxy benzoic acid] | do not alter the conformation of NPR1 | did not reduce the amount of NPR1-dependent oligomer | do not interact with NPR1 with the same affinity as SA |  | 
2 | O=C(O)c1cccc(O)c1 [3-hydroxy benzoic acid] |  |  | do not interact with NPR1 with the same affinity as SA |  | 
3 | O=C(O)c1cc(Cl)cc(Cl)c1O [3,5-dichloro SA] |  |  |  | low solubility in water | 
4 | CSC(=O)c1cccc2nnsc12 [BTH, benzo(1,2,3)thiadiazole-7-carbothioic acid S-methyl ester] |  | reduced the amount of NPR1-dependent oligomer on the PR-1 promoter |  | low solubility in water | PR-1 expression (PR-1 expression; BTH at 100 μM): capacity to induce PR-1 expression
5 | O=C(O)c1ccc(Cl)cc1O [4-chloro SA] |  |  |  | low solubility in water | 
6 | Oc1ccccc1O [catechol] | do not alter the conformation of NPR1 |  | do not interact with NPR1 with the same affinity as SA |  | 
7 | O[C@@H](CS)[C@@H](O)CS [DTT] | did not induce a redistribution of the protein to the included volume |  |  |  | 
8 | O=C(O)c1cc(Cl)nc(Cl)c1 [INA, 2,6-dichloroisonicotinic acid] |  | did not affect the NPR1-dependent oligomer on the PR-1 promoter |  | low solubility in water | PR-1 expression (PR-1 expression; 300 μM): poor inducer of PR-1 expression; PR-1 induction, times less effective than an identical concentration of 4-chloro SA (PR-1 expression; [4]): 10 times; PR-1 induction, times less effective than an identical concentration of SA (PR-1 expression; [4]): 42 times

Source: patent US10674724B2, “Method of activating immune response in plants” (priority 2012, dated 2020)
